Assay results published in US7973012B2, “C-phenyl glycitol compound” (Taisho Pharmaceutical Co., Ltd, priority 2006, dated 2011).

Tests used:
human SGLT1 = molecular target: T1, human SGLT1 (Homo sapiens, UniProt P13866); assay: Inhibition test of sodium-dependent sugar uptake in CHO-k1 cells stably expressing human SGLT1; assay type: cell-based; settings: for IC50: CHO-k1 cells expressing human SGLT1, [14C]methyl α-D-glucopyranoside uptake, 37° C., 30 minutes; for SGLT1 % inhibition at 100 nM: sugar uptake inhibition rate at 100 nM test compound vs control group
T1 construct: expressed in transfected cells; host or cells: CHO-k1
T1 sequence (P13866 1-664): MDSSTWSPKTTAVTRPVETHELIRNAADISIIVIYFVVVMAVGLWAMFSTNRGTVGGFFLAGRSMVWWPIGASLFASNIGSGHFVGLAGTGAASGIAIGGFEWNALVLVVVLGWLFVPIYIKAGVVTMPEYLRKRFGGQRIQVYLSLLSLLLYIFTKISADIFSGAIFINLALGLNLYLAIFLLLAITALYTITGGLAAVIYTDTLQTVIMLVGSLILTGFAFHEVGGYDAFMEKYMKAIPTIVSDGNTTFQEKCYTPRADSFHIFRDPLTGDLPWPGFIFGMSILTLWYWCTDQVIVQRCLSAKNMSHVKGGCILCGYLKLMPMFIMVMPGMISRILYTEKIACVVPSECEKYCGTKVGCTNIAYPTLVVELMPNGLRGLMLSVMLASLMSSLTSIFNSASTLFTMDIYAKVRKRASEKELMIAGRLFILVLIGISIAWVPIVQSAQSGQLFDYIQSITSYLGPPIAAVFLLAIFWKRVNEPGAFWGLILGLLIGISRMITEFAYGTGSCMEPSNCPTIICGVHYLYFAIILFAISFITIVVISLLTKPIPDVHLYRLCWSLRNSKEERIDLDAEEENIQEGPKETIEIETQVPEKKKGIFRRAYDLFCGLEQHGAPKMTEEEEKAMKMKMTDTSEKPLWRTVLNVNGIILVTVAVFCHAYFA
Protocol: (§1) An SGLT1 sequence (NM_000343) was reverse-transcripted from human small intestinal mRNA, then amplified, and then introduced into pCMV-tag5A from Stratagene Corporation. An SGLT2 sequence (NM_003041) was prepared from human nephric mRNA as with the above method, and then introduced into pcDNA3.1+hygro from Invitrogen Corporation. Each cloned sequence was confirmed to be identical with the reported sequence.
(§2) The human SGLT1 and human SGLT2 expression vectors were transfected into CHO-k1 cells by using Lipofectamine 2000 from Invitrogen Corporation. The SGLT expression cells were incubated in the presence of Geneticin (SGLT1) or Hygromycin B (SGLT2) at a 500 μg/mL concentration to select resistant strains, and specific activity of sugar uptake was obtained as an indicator by the following system.
(§3) Cells stably expressing human SGLT1 and human SGLT2 were used for the inhibition test of sodium-dependent glucose uptake.
(§4) The cells were incubated in a pretreatment buffer A (200 μL for SGLT1, and 2 mL for SGLT2) for 20 minutes. The pretreatment buffer was removed and an uptake buffer B (75 μL for SGLT1, and 200 μL for SGLT2) containing a test compound was added to conduct an uptake reaction at 37° C. for 30 minutes (SGLT1) or an hour (SGLT2). After the reaction, the cells were washed with a washing buffer C twice (200 μL for SGLT1, and 2 mL for SGLT2), and then dissolved in a 0.2 M solution of NaOH (75 μL for SGLT1, and 400 μL for SGLT2). After a liquid scintilater was added thereto and mixed sufficiently, radioactivity was measured with microBETA (SGLT1) or a liquid scintillation counter from Beckman Coulter, Inc (SGLT2). As a control group, an uptake buffer containing no test compound was prepared. In addition, as the basic uptake buffer, an uptake buffer B containing choline chloride instead of NaCl was prepared. • A pretreatment buffer A: 140 mM choline chloride, 2 mM KCl, 1 mM CaCl2, 1 mM MgCl2, 10 mM HEPES/5 mM Tris, pH 7.4. • An uptake buffer B: 1 mM of methyl α-D-glucopyranoside containing [^14C]methyl α-D-glucopyranoside, 140 mM NaCl, 2 mM KCl, 1 mM CaCl2, 1 mM MgCl2, 10 mM HEPES/5 mM Tris, pH 7.4. • A washing buffer C: 10 mM methyl α-D-glucopyranoside, 140 mM choline chloride, 2 mM KCl, 1 mM CaCl2, 1 mM MgCl2, 10 mM HEPES/5 mM Tris, pH 7.4.
(§5) In order to obtain IC50 values, test compounds having adequate 6 concentrations were used and the test compound concentrations (IC50 values) at which sugar uptake is inhibited by 50% in comparison with the amount of sugar uptake (100%) of the control group were calculated.
(§6) In addition, the sugar uptake inhibition rates at 100 nM concentration of the test compound in comparison with the control group are shown in Table 7.

human SGLT2 = molecular target: T2, human SGLT2 (Homo sapiens, UniProt P31639); assay: Inhibition test of sodium-dependent sugar uptake in CHO-k1 cells stably expressing human SGLT2; assay type: cell-based; settings: for IC50: CHO-k1 cells expressing human SGLT2, [14C]methyl α-D-glucopyranoside uptake, 37° C., an hour; for SGLT2 % inhibition at 100 nM: sugar uptake inhibition rate at 100 nM test compound vs control group
T2 construct: expressed in transfected cells; host or cells: CHO-k1
T2 sequence (P31639 1-672): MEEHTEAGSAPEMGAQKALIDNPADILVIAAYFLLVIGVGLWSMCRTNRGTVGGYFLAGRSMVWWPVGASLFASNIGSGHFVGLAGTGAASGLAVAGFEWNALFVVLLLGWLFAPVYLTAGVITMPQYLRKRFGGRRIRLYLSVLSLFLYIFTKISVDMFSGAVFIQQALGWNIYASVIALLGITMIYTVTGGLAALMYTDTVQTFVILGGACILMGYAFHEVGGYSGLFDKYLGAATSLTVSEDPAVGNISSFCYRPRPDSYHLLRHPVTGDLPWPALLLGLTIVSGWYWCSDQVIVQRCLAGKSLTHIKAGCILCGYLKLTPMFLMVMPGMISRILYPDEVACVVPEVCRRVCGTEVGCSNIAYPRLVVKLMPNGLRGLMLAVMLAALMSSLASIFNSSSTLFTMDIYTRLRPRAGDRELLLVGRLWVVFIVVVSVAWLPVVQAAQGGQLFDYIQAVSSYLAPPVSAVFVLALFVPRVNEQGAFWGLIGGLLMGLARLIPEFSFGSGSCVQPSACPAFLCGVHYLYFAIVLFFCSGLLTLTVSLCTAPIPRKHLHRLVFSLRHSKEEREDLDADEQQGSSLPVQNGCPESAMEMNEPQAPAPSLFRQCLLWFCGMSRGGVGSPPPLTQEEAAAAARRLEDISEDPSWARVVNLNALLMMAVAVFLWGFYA
Protocol: as §1, §2, §3, §4, §5, §6

IC50 (human SGLT1) | IC50 (human SGLT2) | SGLT1 % inhibition at 100 nM (human SGLT1) | SGLT2 % inhibition at 100 nM (human SGLT2) | SMILES
83 nM | 34 nM |  |  | Cc1cc(O)c([C@@H]2O[C@H](CO)[C@@H](O)[C@H](O)[C@H]2O)cc1Cc1ccc(CCNC(=O)NC2CCCc3ccccc32)cc1 (stereo partly shown) [Compound 35]
 |  | 66% | 80% | Cc1cc(O)c(C2OC(CO)C(O)C(O)C2O)cc1Cc1ccc(CCNC(=O)N2CCC3CCCCC3C2)cc1 (mixture of isomers) [Compound 143]
19 nM | 19 nM |  |  | Cc1cc(O)c([C@@H]2O[C@H](CO)[C@@H](O)[C@H](O)[C@H]2O)cc1Cc1ccc(CCNC(=O)NC2(CO)CCCC2)cc1 [Compound 23]
 |  | 65% | 84% | Cc1cc(O)c([C@@H]2O[C@H](CO)[C@@H](O)[C@H](O)[C@H]2O)cc1Cc1ccc(CCNC(=O)NC2Cc3ccccc3C2)cc1 [Compound 138]
 |  | 63% | 81% | Cc1cc(O)c([C@@H]2O[C@H](CO)[C@@H](O)[C@H](O)[C@H]2O)cc1Cc1ccc(CCNC(=O)NCCc2ccc(O)cc2)cc1 [Compound 63]
 |  | 62% | 83% | Cc1cc(O)c([C@@H]2O[C@H](CO)[C@@H](O)[C@H](O)[C@H]2O)cc1Cc1ccc(CCNC(=O)NCC(O)COc2ccccc2)cc1 (stereo partly shown) [Compound 66]
 |  | 62% | 76% | Cc1cc(O)c([C@@H]2O[C@H](CO)[C@@H](O)[C@H](O)[C@H]2O)cc1Cc1ccc(CCNC(=O)NCC2OCCO2)cc1 [Compound 64]
49 nM | 21 nM |  |  | O=C(NCCc1ccc(Cc2cc([C@@H]3O[C@H](CO)[C@@H](O)[C@H](O)[C@H]3O)c(O)cc2Cl)cc1)NC(CO)(CO)CO [Compound 14, (1S)-1,5-anhydro-1-[4-chloro-5-[4-[2-[[[2-hydroxy-1,1-bis(hydroxymethyl)ethyl]aminocarbonyl]amino]ethyl]benzyl]-2-hydroxyphenyl]-D-glucitol]
 |  | 90% | 90% | Cc1cc(O)c(C2OC(CO)C(O)C(O)C2O)cc1Cc1ccc(CCNC(=O)NC2CCN(Cc3ccccc3)C2)cc1 (mixture of isomers) [Compound 132]
37 nM | 25 nM |  |  | Cc1cc(O)c([C@@H]2O[C@H](CO)[C@@H](O)[C@H](O)[C@H]2O)cc1Cc1ccc(CCNC(=O)N[C@@H](CC(C)C)C(N)=O)cc1 [Compound 24]
 |  | 68% | 51% | COc1ccc(CCN(C)C(=O)NCCc2ccc(Cc3cc([C@@H]4O[C@H](CO)[C@@H](O)[C@H](O)[C@H]4O)c(O)cc3C)cc2)cc1OC [Compound 57]
 |  | 71% | 84% | COc1cccc(CCNC(=O)NCCc2ccc(Cc3cc([C@@H]4O[C@H](CO)[C@@H](O)[C@H](O)[C@H]4O)c(O)cc3C)cc2)c1 [Compound 51]
 |  | 74% | 91% | Cc1cc(O)c(C2OC(CO)C(O)C(O)C2O)cc1Cc1ccc(CCNC(=O)NC(CO)CC(C)C)cc1 (stereo not shown) [Compound 46]
 |  | 77% | 86% | Cc1cc(O)c([C@@H]2O[C@H](CO)[C@@H](O)[C@H](O)[C@H]2O)cc1Cc1ccc(CCNC(=O)NC(CO)C(C)C)cc1 (stereo partly shown) [Compound 43]
 |  | 68% | 90% | Cc1cc(O)c([C@@H]2O[C@H](CO)[C@@H](O)[C@H](O)[C@H]2O)cc1Cc1ccc(CCNC(=O)NC2CCCC2)cc1 [Compound 125]
 |  | 67% | 86% | Cc1cc(O)c([C@@H]2O[C@H](CO)[C@@H](O)[C@H](O)[C@H]2O)cc1Cc1ccc(CCNC(=O)N(CC(C)C)CC(C)C)cc1 [Compound 59]
 |  | 71% | 79% | Cc1cc(O)c(C2OC(CO)C(O)C(O)C2O)cc1Cc1ccc(CCNC(=O)NC2CC3CCC2C3)cc1 (mixture of isomers) [Compound 124]
 |  | 61% | 82% | Cc1cc(O)c([C@@H]2O[C@H](CO)[C@@H](O)[C@H](O)[C@H]2O)cc1Cc1ccc(CCNC(=O)NCCN2CCCCC2)cc1 [Compound 67]
 |  | 71% | 79% | Cc1cc(O)c(C2OC(CO)C(O)C(O)C2O)cc1Cc1ccc(CCNC(=O)Nc2ccccc2C(O)c2ccccc2)cc1 (mixture of isomers) [Compound 137]
 |  | 79% | 73% | COC(=O)C(NC(=O)NCCc1ccc(Cc2cc(C3OC(CO)C(O)C(O)C3O)c(O)cc2C)cc1)C(C)(C)C (stereo not shown) [Compound 54]
 |  | 70% | 74% | Cc1cc(O)c([C@@H]2O[C@H](CO)[C@@H](O)[C@H](O)[C@H]2O)cc1Cc1ccc(CCNC(=O)NCC(c2ccccc2)c2ccccc2)cc1 [Compound 53]
37 nM | 12 nM |  |  | COC(=O)[C@H](Cc1ccccc1)NC(=O)NCCc1ccc(Cc2cc([C@@H]3O[C@H](CO)[C@@H](O)[C@H](O)[C@H]3O)c(O)cc2C)cc1 [Compound 22]
52 nM | 15 nM |  |  | Cc1cc(O)c([C@@H]2O[C@H](CO)[C@@H](O)[C@H](O)[C@H]2O)cc1Cc1ccc(CCNC(=O)NCc2cccs2)cc1 [Compound 26]
64 nM | 18 nM |  |  | Cc1cc(O)c([C@@H]2O[C@H](CO)[C@@H](O)[C@H](O)[C@H]2O)cc1Cc1ccc(CCNC(=O)NCC2CCCCC2)cc1 [Compound 28]
 |  | 68% | 77% | CCCNC(=O)NCCc1ccc(Cc2cc([C@@H]3O[C@H](CO)[C@@H](O)[C@H](O)[C@H]3O)c(O)cc2C)cc1 [Compound 56]
 |  | 89% | 83% | CCC(CO)(CO)NC(=O)NCCc1ccc(Cc2cc([C@@H]3O[C@H](CO)[C@@H](O)[C@H](O)[C@H]3O)c(O)cc2C)cc1 [Compound 38]
